Laboratory results reported in US7943128B2, “Anti-microbial compositions comprising a cationic peptide and a glycylglycine endopeptidase” (priority 2006, dated 2011).
Positions of bridges follow the written chain, without caps; N, C: chain ends. No end group written: not given here.

Assays:
MRSA252 = assay: Bactericidal assay, survivors after 30 minute exposure in TSB broth; format: cell-based, Staphylococcus aureus
Description: MRSA252 in TSB broth was exposed for 30 mins to either: increasing concentrations (0, 1, 2, 4, 6, 8 and 10 μg/ml) of ranalexin alone (filled squares); increasing concentrations (0.0, 0.01, 0.02, 0.04, 0.06, 0.08, 0.1 μg/ml) of lysostaphin alone (filled circles); or a combination of 8 μg/ml ranalexin with increasing concentrations (0.0, 0.01, 0.02, 0.04, 0.06, 0.08, 0.1 μg/ml) of lysostaphin. Total cell numbers, or survivors, after a 30 minute exposure to each of the above conditions were determined by serial dilution and plating on TSB agar. Survivors were determined after 24 hours incubation of the TSB plates at 37° C. and expressed as the log of colony forming units per ml of broth. The arrows on FIG. 7 indicate that the numbers of survivors were less than the minimum detectable by this method.

[1] = tested on: Staphylococcus aureus MRSA252 and Staphylococcus aureus MSSA476; assay: Impregnated dried paper disks on TSA plates, zones of inhibition; format: cell-based; conditions: none at lower amounts
Description: Sterile Whatman paper disks were impregnated with ranalexin (0.5, 1, 2, 5, 10 or 20 μg), with lysostaphin (0.1, 0.2, 0.5, 1, 2 or 5 μg), a combination of 1 μg lysostaphin and ranalexin (0.5, 1, 2, 5, 10 or 20 μg), or a combination of 10 μg ranalexin and lysostaphin ([…], 0.5, 1, 2 or 5 μg). The paper disks were allowed to dry overnight and then stored at −20° C. until required.
Cultures of Staphylococcus aureus MRSA252 and Staphylococcus aureus MSSA476 were grown to mid-log phase (OD600 0.6-0.9) and diluted to 0.6 if necessary. 150 μl of the culture was then spread onto TSA (Tryptone Soya Agar; Oxoid, Basingstoke, UK) plates and allowed to dry. An impregnated paper disk prepared as described above was placed centrally on the agar plates. Plates were incubated for 20 hours at 37° C. before visual assessment of the zones of inhibition (see FIG. 8) which were visible as clear areas around the disks.

[2] = tested on: Staphylococcus aureus MRSA252; assay: Microtitre plate growth inhibition in TSB, 48 hours, turbidity; format: cell-based; conditions: for concentration needed for inhibition, compound alone: MRSA252, 48 hours, in the absence of the other compound
Description: (§1) Staphylococcus aureus strains MSSA476 (left) and MRSA252 (right) were cultivated in TSB (Tryptone Soya Broth; Oxoid Basingstoke, UK) to mid-exponential phase. Cultures were then diluted in fresh medium to a starting optical density of 600 nm of 0.001 (approximately 1.0×10^6 cells/ml). Growth of 100 μl volume cultures was measured in 96-well culture plates using TSB as control for 37° C. for 48 hours without shaking in the presence of 0 μg ranalexin/ml medium to 50 μg/ml, increasing stepwise by 5 μg/ml. 8 samples were cultivated for each concentration of ranalexin and to each such sample a different concentration of lysostaphin was added from 0 μg/ml to 1.05 μg/ml in steps of 0.15 μg/ml. The antibacterial activity was measured by reduced turbidity measured by optical density by scanning on an Image Scanner (GE Healthcare UK Ltd) using Image Master Labscan v.3 software. The concentration of ranalexin is indicated above the respective column, each well of a column having the same ranalexin concentration. The wells of each row contain lysostaphin at a final concentration of 0 μg lysostaphin per ml medium to 1.05 μg/ml (as indicated on left), increasing stepwise by 0.15 μg/ml. For S. aureus MSSA476 cultivated in the absence of lysostaphin, ranalexin provides an inhibitory effect at concentrations above 30 μg/ml medium (typically 35 to 40 μg/ml). […] The combination of ranalexin and lysostaphin reduces the necessary amount of each of the compounds by providing a synergistic antimicrobial effect.
(§2) Staphylococcus aureus strains MSSA476 (left) and MRSA252 (right) were cultivated in TSB medium as described in Example 1, except for the narrower concentration ranges of ranalexin and lysostaphin. Ranalexin is provided at concentrations of 0 μg/ml, 0.5 μg/ml and 1 μg/ml to 10 μg/ml, increasing stepwise by 1 μg/ml medium, and lysostaphin concentrations of 0 μg/ml to 0.2 μg/ml, with intermediate concentrations of 0.01 μg/ml, 0.025 μg/ml, 0.05 μg/ml, 0.075 μg/ml, 0.1 μg/ml and 0.15 μg/ml as indicated in FIG. 2.

[3] = tested on: Staphylococcus aureus MSSA476; assay: as above; format: cell-based
Description: as §1, §2

[4] = tested on: Staphylococcus aureus strains MSSA476 and MRSA252; assay: Microtitre plate growth inhibition with dermaseptin s3(1-16) or magainin 2 and lysostaphin (Examples 3, 4); format: cell-based; conditions: either strain, up to 50 μg ml^−1

| Substance | effect on viability (MRSA252; ranalexin alone up to 10 μg ml^−1, 30 minutes) | zone of inhibition, agent alone ([1]; disk with 20 μg ranalexin) | concentration needed for inhibition, compound alone [2] | reduction in numbers (MRSA252; 0.06 μg ml^−1 lysostaphin, 30 minutes) | effect on viable cell numbers (MRSA252; lysostaphin alone, 0.01 to 0.1 μg ml, 30 minutes) | zone of inhibition, agent alone ([1]; disk with 5 μg lysostaphin) | concentration providing an inhibitory effect, compound alone ([3]; MSSA476, 48 hours, in the absence of the other compound) | MIC ([3]; MSSA476, lysostaphin alone) | MIC ([2]; MRSA252, lysostaphin alone) | inhibitory effect of the peptide alone [4] |
| --- | --- | --- | --- | --- | --- | --- | --- | --- | --- | --- |
| ranalexin: 20 amino acid bullfrog peptide FLGGLIKIVPAMICAVTKKC (SEQ ID NO 1) with a single intramolecular disulphide bond (FLGGLIKIVPAMICAVTKKC; disulfide 14-20 (inferred); listed as Rana catesbeiana) | no detectable effect on viability | some minimal inhibition | above 40 μg/ml | – | – | – | – | – | – | – |
| lysostaphin: 27 kDa zinc-dependent metallopeptidase (glycylglycine endopeptidase) secreted by Staphylococcus simulans and S. staphylolyticus | – | – | above 0.45 μg/ml | 0.5 log | minor decrease in viable cell numbers | some minimal inhibition | above 0.75 μg/ml | approximately 0.75 μg/ml | approximately 0.45 μgml | – |
| Magainin 2 | – | – | – | – | – | – | – | – | – | little inhibitory effect |
